From ChEMBL document CHEMBL5321235, “Design, synthesis, and SAR study of novel flavone 1,2,4-oxadiazole derivatives with anti-inflammatory activities for the treatment of Parkinson's disease” (Eur J Med Chem, 2023)
Activity calls are given as the source filed them.

Experiments:
BV-2 [1] = test: Antiinflammatory activity in LPS-induced mouse BV-2 cells assessed as increase in IL-10 mRNA expression at 5 to 10 uM pretreated for 18 hrs followed by LPS-stimulation and measured after 6 hrs by qRT-PCR analysis; format: functional, cell-based; details: dose 5-10 µM, time 24.0 hrs
Mus musculus [2] = test: Anti-parkinson activity in MPTP-induced C57BL/6J mouse model assessed as increase in locomotion at 15 to 35 mg/kg, ip administered with compound once daily for 2 weeks followed by MPTP addition on day 8 and measured after 2 weeks of compound addition by open field test; format: functional, organism-based; details: dose 15-35 mg/kg
BV-2 [3] = test: Antiinflammatory activity in LPS-induced mouse BV-2 cells assessed as reduction in CD86 mRNA expression at 5 to 10 uM pretreated for 18 hrs followed by LPS-stimulation and measured after 6 hrs by qRT-PCR analysis; format: functional, cell-based; details: dose 5-10 µM, time 24.0 hrs
BV-2 [4] = test: Induction of apoptosis in LPS-induced mouse BV-2 cells assessed as increase in Bcl-2 expression at 5 to 10 uM pretreated for 18 hrs followed by LPS-stimulation and measured after 6 hrs by immunofluorescence analysis; format: functional, cell-based; details: dose 5-10 µM, time 24.0 hrs
BV-2 [5] = test: Antiinflammatory activity in LPS-induced mouse BV-2 cells assessed as reduction in IL-6 mRNA expression at 5 to 10 uM pretreated for 18 hrs followed by LPS-stimulation and measured after 6 hrs by qRT-PCR analysis; format: functional, cell-based; details: dose 5-10 µM, time 24.0 hrs
BV-2 [6] = test: Induction of apoptosis in mouse LPS-induced BV-2 cells assessed as increase in cleaved Caspase-3 expression at 5 to 10 uM pretreated for 18 hrs followed by LPS-stimulation and measured after 6 hrs by Western blot analysis; format: functional, cell-based; details: dose 5-10 µM, time 24.0 hrs
BV-2 [7] = test: Antiinflammatory activity in LPS-induced mouse BV-2 cells assessed as increase in CD206 mRNA expression at 5 to 10 uM pretreated for 18 hrs followed by LPS-stimulation and measured after 6 hrs by qRT-PCR analysis; format: functional, cell-based; details: dose 5-10 µM, time 24.0 hrs
Microglia [8] = test: Neuroprotective activity against MPTP-induced apoptosis in mouse microglia assessed as increase in BAX expression in brain tissue at 15 mg/kg, ip administered with compound once daily for 2 weeks followed by MPTP addition on day 8 and measured after 2 weeks of compound addition by Western blot analysis; format: functional, organism-based
Mus musculus [9] = test: Antiinflammatory activity in MPTP-induced C57BL/6J mouse assessed as increase in IL-10 expression at 15 mg/kg, ip administered with compound once daily for 2 weeks followed by MPTP addition on day 8 and measured after 2 weeks of compound addition Western blot analysis; format: functional, organism-based
Microglia [10] = test: Neuroprotective activity against MPTP-induced apoptosis in mouse microglia assessed as increase in Caspase3 expression in brain tissue at 15 mg/kg, ip administered with compound once daily for 2 weeks followed by MPTP addition on day 8 and measured after 2 weeks of compound addition by Western blot analysis; format: functional, organism-based

Measured: Activity

Cc1cccc(-c2noc(-c3cccc4c(=O)c(C)c(-c5ccccc5)oc34)n2)c1
active: all assays above
